The values below come from US7994164B2, “Mineralocorticoid receptor antagonists and methods of use” (Eli Lilly and Company, priority 2007, dated 2011).

Experiment [1] addresses T1, human MR (mineralocorticoid receptor) (Homo sapiens, UniProt P08235).
T1 construct: expressed in transfected cells; host or cells: HEK293 (lysate, '293-MR lysate')
T1 sequence (P08235 1-984): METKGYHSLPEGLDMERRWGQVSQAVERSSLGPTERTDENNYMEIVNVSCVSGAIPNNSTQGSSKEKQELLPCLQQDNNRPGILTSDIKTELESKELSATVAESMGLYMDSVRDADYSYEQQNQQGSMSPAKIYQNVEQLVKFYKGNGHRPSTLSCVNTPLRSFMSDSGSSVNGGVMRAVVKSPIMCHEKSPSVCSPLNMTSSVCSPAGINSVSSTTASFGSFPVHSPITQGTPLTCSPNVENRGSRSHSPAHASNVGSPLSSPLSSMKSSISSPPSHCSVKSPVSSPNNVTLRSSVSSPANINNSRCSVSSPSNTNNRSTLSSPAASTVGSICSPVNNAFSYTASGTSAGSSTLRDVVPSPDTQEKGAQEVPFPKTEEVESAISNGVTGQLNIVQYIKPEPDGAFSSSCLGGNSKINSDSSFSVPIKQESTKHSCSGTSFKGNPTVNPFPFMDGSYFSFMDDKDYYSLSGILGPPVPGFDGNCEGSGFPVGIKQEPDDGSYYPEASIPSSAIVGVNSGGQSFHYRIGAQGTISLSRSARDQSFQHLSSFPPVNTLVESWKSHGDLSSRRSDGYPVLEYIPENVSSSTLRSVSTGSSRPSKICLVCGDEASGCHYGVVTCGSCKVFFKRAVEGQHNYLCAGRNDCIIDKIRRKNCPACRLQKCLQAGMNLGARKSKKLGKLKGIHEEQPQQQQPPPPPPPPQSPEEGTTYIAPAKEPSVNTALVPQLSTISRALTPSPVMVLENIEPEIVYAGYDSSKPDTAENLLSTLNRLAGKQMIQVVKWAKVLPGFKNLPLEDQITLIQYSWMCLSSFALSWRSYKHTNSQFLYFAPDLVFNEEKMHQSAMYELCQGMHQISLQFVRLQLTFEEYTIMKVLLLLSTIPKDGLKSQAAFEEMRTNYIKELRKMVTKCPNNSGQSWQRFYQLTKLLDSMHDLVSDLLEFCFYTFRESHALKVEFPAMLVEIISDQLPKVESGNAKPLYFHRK
Kind of experiment: Steroid hormone nuclear receptor binding assay (MR binding). Conditions: HEK293 lysate overexpressing human MR, [3H]-aldosterone; individual values geometric mean of n=2. How it is done:
Cell lysates from human embryonic kidney HEK293 cells overexpressing human MR (mineralocorticoid receptor), GR (glucocorticoid receptor), AR (androgen receptor), or PR (progesterone receptor) are used for receptor-ligand competition binding assays to determine Ki values.
Briefly, steroid receptor competition binding assays are run in a buffer containing 20 mM HEPES buffer (pH=7.6), 0.2 mM EDTA, 75 mM NaCl, 1.5 mM MgCl2, 20% glycerol, 20 mM sodium molybdate, 0.2 mM DTT (dithiothreitol), 20 μg/mL aprotinin and 20 μg/mL leupeptin (assay buffer). Typically, steroid receptor binding assays include radio-labeled ligands, such as 0.25 nM [^3H]-aldosterone for MR binding, 0.3 nM [^3H]-dexamethasone for GR binding, 0.36 nM [^3H]-methyltrienolone for AR binding, and 0.29 nM [^3H]-methyltrienolone for PR binding, and either 20 μg 293-MR lysate, 20 μg 293-GR lysate, 22 μg 293-AR lysate, or 40 μg 293-PR lysate per well. Assays are typically run in 96-well format. Competing test compounds are added at various concentrations ranging from about 0.01 nM to 10 μM. […] The binding reactions (140 μL) are incubated overnight at 4° C., then 70 μL of cold charcoal-dextran buffer (containing per 50 mL of assay buffer, 0.75 g of charcoal and 0.25 g of dextran) is added to each reaction. Plates are mixed for 8 minutes on an orbital shaker at 4° C. The plates are then centrifuged at 3,000 rpm at 4° C. for 10 minutes. An aliquot of 120 μL of the binding reaction mixture is then transferred to another 96-well plate and 175 μL of Wallac Optiphase Hisafe 3™ scintillation fluid is added to each well. Plates are sealed and shaken vigorously on an orbital shaker. After an incubation of 2 hours, plates are read in a Wallac Microbeta counter.
The Kd for [^3H]-aldosterone for MR binding, [^3H]-dexamethasone for GR binding, [^3H]-methyltrienolone for AR binding, or [^3H]-methyltrienolone for PR binding, is determined by saturation binding. The IC50 values for compounds are converted to Ki using the Cheng-Prusoff equation.

The target in experiment [2] is T2, human MR (Homo sapiens, UniProt P08235).
T2 construct: expressed in transfected cells; host or cells: HEK293, transient transfection with a CMV-driven plasmid and a GRE-TK-luciferase reporter
T2 sequence (P08235 1-984): T1 sequence (P08235 1-984)
Kind of experiment: hMR competitive antagonist assay (luciferase reporter, Schild analysis). It is filed as cell-based. The text has this:
Human embryonic kidney HEK293 cells are transfected with steroid hormone receptor and reporter gene plasmids using a suitable transfection reagent such as Fugene™. Briefly, the reporter plasmid containing two copies of probasin ARE and TK (thymidine kinase) promoter upstream of the luciferase reporter cDNA, is transfected into HEK293 cells with a plasmid constitutively expressing human androgen receptor (AR) using viral CMV (cytomegalovirus) promoter. The reporter plasmid containing two copies of GRE and TK promoter upstream of the luciferase reporter cDNA is transfected with a plasmid constitutively expressing either human glucocorticoid receptor (GR), human mineralocorticoid receptor (MR), or human progesterone receptor (PR) using viral CMV promoter. Cells are transfected in T150 cm flasks in DMEM media with 5% charcoal-stripped Fetal Bovine Serum (FBS). After an overnight incubation, transfected cells are trypsinized, plated in 96 well dishes in DMEM media containing 5% charcoal-stripped FBS, incubated for 4 hours and then exposed to various concentrations of test compounds ranging from about 0.01 nM to 10 μM. […] After 24 hours incubation with test compounds, cells are lysed and luciferase activity is determined using standard techniques.
Human embryonic kidney HEK293 cells are transfected with human MR using the same transfection reagents, plasmids, promoters, reporter constructs, buffers, and procedures as described above for the Nuclear Hormone Receptor Panel Screen.

Experiment [3] has as its system uni-nephrectomized Sprague Dawley rats. Kind of experiment: In vivo model of aldosterone mediated renal disease. Conditions: 10 mg/kg/day x 14 days, oral gavage, aldosterone-infused rats; average of n=8. How it is done: Male uni-nephrectomized Sprague Dawley rats (240-280 g) are housed individually with ad lib house water and rodent 5001 diet for one week. After acclimation, baseline 24 h urine samples are collected and analyzed for total urine protein and creatinine. Animals are randomized via body weight and baseline urine protein into study groups. Baseline serum is taken by tail-clip and analyzed for blood urea nitrogen (BUN), creatinine, and electrolytes. After baseline samples are taken, all rats with the exception of the control group are maintained on a diet containing 6% salt, and drinking water containing 0.3% KCl throughout the study duration. […] Alza mini-pumps to deliver 2.5 μl/h×28 days of d-aldosterone in 0.01% DMSO at 0.75 μg/h, s.c. are implanted in non-control animals (e.g Test Compound group and Vehicle only group) under isoflourane anesthesia. […] Repeat urine samples are collected after 2 and 4 weeks of compound or vehicle alone administration and analyzed for total urine protein and creatinine. At study termination, pharmacokinetic samples are obtained at 8 timepoints (0.5, 1, 2, 3, 6, 8, 12 and 24 h). In addition, hearts and kidneys are removed and fixed in 10% buffered formalin for haematoxylin and eosin (H&E) and Masson's trichrome staining to detect structural damage in cardiac and renal tissues. Serum is taken by cardiac puncture at study termination for additional analysis of serum BUN, creatinine, and electrolytes.

For orientation: Ki means the equilibrium dissociation constant of an inhibitor or competing ligand from its target. Read a high Ki as a looser hold on the target. Usually Kb stands for the equilibrium dissociation constant of an antagonist, usually derived from a functional assay. A high value points to a less potent antagonist. In experiment [1], `C[C@H](CN1CCOCC1)n1/c(=N/C#N)[nH]c2cc(/C=C3\c4ccc(F)cc4COc4cc(F)ccc43)ccc21` [Example 1, (E)-N—((R)-5-((E)-3,8-Difluoro-6H-dibenzo[b,e]oxepin-11-ylidenemethyl)-1-(1-methyl-2-morpholin-4-yl-ethyl)-1,3-dihydro-benzoimidazol-2-ylidene)-cyanamide] showed a Ki of roughly 0.79 nM. Also, in experiment [2], the antagonist equilibrium constant (Kb) is roughly 1.2 nM. In addition, in experiment [3], the “reduced urinary protein excretion compared to vehicle treated animals” value (“reduced urinary protein excretion” for short) is “about 49 mg/day”.

Molecule `CN1CCN(n2/c(=N/C#N)[nH]c3cc(/C=C4\c5ccccc5COc5cc(F)ccc54)ccc32)CC1` [Example 8, (E)-N-(5-((E)-3-Fluoro-6H-dibenzo[b,e]oxepin-11-ylidenemethyl)-1-(4-methyl-piperazin-1-yl)-1,3-dihydro-benzoimidazol-2-ylidene)-cyanamide] showed an inhibition constant Ki in experiment [1] of roughly 0.08 nM. This molecule also registered a Kb in experiment [2] of roughly 1.1 nM. The “reduced urinary protein excretion” value in experiment [3] was roughly 83 mg/day.

`N#C/N=c1\[nH]c2cc(/C=C3/c4ccc(F)cc4OCc4c(F)cccc43)ccc2n1[C@H]1C[C@@H]2COCCN2C1` [Example 23, (E)-N-(5-((E)-3,7-Difluoro-6H-dibenzo[b,e]oxepin-11-ylidenemethyl)-1-((7S, 8aR)-hexahydro-pyrrolo[2,1-c][1,4]oxazin-7-yl)-1,3-dihydro-benzoimidazol-2-ylidene)-cyanamide]: the inhibition constant Ki in experiment [1] is roughly 0.23 nM. In experiment [2], the antagonist equilibrium constant (Kb) is roughly 2.5 nM. For the same molecule, the “reduced urinary protein excretion” value in experiment [3] is recorded as roughly 64 mg/day.
